Results reported in patent US20230159445A1, “STAT INHIBITORY COMPOUNDS AND COMPOSITIONS” (JANPIX LIMITED, priority 2020, published 2023).
pIC50: −log10 of the molar value.

Assays:
MV4-11 cells = assay: MV4-11 Cell Cytotoxicity Assay (CellTiter-Blue, 72 h); type: cell-based, human; conditions: Homo sapiens, MV4-11; MV-4-11 cells
Summary of the method: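 Viability read-out: CellTiter-Blue, 1 h, fluorescence 560/590 nm. Preceded by 72 h exposure (37° C, 5% CO2) to twofold dilution series from 50 μM, triplicate, 0.5% DMSO vehicle, applied 24 h after plating.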

[1] = test system: normal human fibroblast (NHF) cells; assay: NHF Cell Cytotoxicity Assay (CellTiter-Blue, 72 h), off-target effects; type: cell-based; conditions: Homo sapiens, Fibroblast; pooled NHF cells
Summary of the method: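 Normal human fibroblasts (1×10^4/well, 10% FBS medium) were treated after 24 h with inhibitor at 0.097656-50 μM for 72 h at 37° C. Viability was read by CellTiter-Blue fluorescence (560/590 nm), normalized to DMSO control, and IC50 obtained from a variable-slope log(inhibitor)-response fit of four replicates.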

glutathione (GSH) = assay: Reactivity Profiling with Glutathione (GSH), half-life by HPLC; conditions: 5 mM glutathione (GSH) in IMDM with 10% FBS
Experimental: 3.5 μL of 5 mM stocking solution of the inhibitors in DMSO was added to 697.5 μL of Iscove's Modified Dulbecco's Medium (IMDM) supplemented with 10% FBS and antibiotic antimycotic solution, with 5 mM glutathione to afford a final concentration of 25 μM inhibitor with 0.5% DMSO. The solution was then immediately placed in the sample tray at 25° C. […] For each inhibitor, its peak is integrated at different time points and compared to the time zero injection in order to obtain a percentage remaining. Half-life is calculated according to a first order reaction kinetic taking into account those time points for which remaining percentage of inhibitor is above 40%, using the formula: t½=Ln(2)/k, where k is the slope of the linear plot of Ln[Inhibitor] vs time, according to the formula: Ln[A]=Ln[A]0−kt, where [A] is the value resulting from the integration at each time point, [A]0 the value at time zero, and t the time. For each inhibitor, both replicates are averaged and the resulting t½ reported.

SMILES	half-life at 25 μM (glutathione (GSH))	pIC50 (MV4-11 cells)	pIC50 [1]
O=C(O)c1ccc(N(Cc2cc(C3CC3)cc(C3CC3)c2)C(=O)CN(Cc2cnccc2C(F)(F)F)S(=O)(=O)c2c(F)c(F)c(F)c(F)c2F)c(C2CC2)c1 [Compound 1194, 3-cyclopropyl-4-(N-(3,5-dicyclopropylbenzyl)-2-(N-((4-(trifluoromethyl)pyridin-3-yl)methyl)-(2,3,4,5,6-pentafluoro-phenyl)sulfonamido)acetamido)benzoic acid]	0.00167 to 2.37 h	6.50 to 11.00	5.00 to 9.00
O=C(O)c1ccc(N(Cc2cc(C3CC3)cc(C3CC3)c2)C(=O)CN(Cc2c(F)cc(F)cc2F)S(=O)(=O)c2c(F)c(F)c(F)c(F)c2F)c(C2CC2)c1 [Compound 1195, 3-cyclopropyl-4-(N-(3,5-dicyclopropylbenzyl)-2-(N-(2,4,6-trifluorobenzyl)-(2,3,4,5,6-pentafluoro-phenyl)sulfonamido)acetamido)benzoic acid]	2.37 to 4.12 h	6.50 to 11.00	5.00 to 9.00
O=C(O)c1ccc(N(Cc2cc(C3CC3)cc(C3CC3)c2)C(=O)CN(Cc2c(F)c(F)c(F)c(F)c2F)S(=O)(=O)c2c(F)c(F)c(F)c(F)c2F)c(C2CC2)c1 [Compound 1196, 3-cyclopropyl-4-(N-(3,5-dicyclopropylbenzyl)-2-(N-((perfluorophenyl)methyl)-(2,3,4,5,6-pentafluoro-phenyl)sulfonamido)acetamido)benzoic acid]	9.23 to 1670 h	6.50 to 11.00	5.00 to 9.00
O=C(O)c1ccc(N(Cc2cc(C3CC3)cc(C3CC3)c2)C(=O)CN(Cc2ccc(F)cc2Cl)S(=O)(=O)c2c(F)c(F)c(F)c(F)c2F)c(C2CC2)c1 [Compound 1197, 4-(2-(N-(2-chloro-4-fluorobenzyl)-(2,3,4,5,6-pentafluorophenyl)sulfon-amido)-N-(3,5-dicyclopropylbenzyl)acetamido)-3-cyclopropylbenzoic acid]	4.12 to 9.23 h	6.50 to 11.00	4.70 to 5.00
O=C(O)c1ccc(N(Cc2cc(C3CC3)cc(N3CCCC3)c2)C(=O)CN(Cc2c(F)cc(F)cc2F)S(=O)(=O)c2c(F)c(F)c(F)c(F)c2F)c(C2CC2)c1 [Compound 1199, 3-cyclopropyl-4-(N-(3-cyclopropyl-5-(pyrrolidin-1-yl)benzyl)-2-(N-(2,4,6-trifluorobenzyl)-(2,3,4,5,6-pentafluoro-phenyl)sulfonamido)acetamido)benzoic acid]	9.23 to 1670 h	6.50 to 11.00	5.00 to 9.00
O=C(O)c1ccc(N(Cc2cc(C3CC3)cc(N3CCCC3)c2)C(=O)CN(Cc2ccc(F)cc2Cl)S(=O)(=O)c2c(F)c(F)c(F)c(F)c2F)c(C2CC2)c1 [Compound 1200, 4-(2-(N-(2-chloro-4-fluorobenzyl)-(2,3,4,5,6-pentafluorophenyl)sulfon-amido)-N-(3-cyclopropyl-5-(pyrrolidin-1-yl)benzyl)acetamido)-3-cyclopropylbenzoic acid]	9.23 to 1670 h	6.50 to 11.00	5.00 to 9.00
Cc1cc(C(=O)O)cc(C)c1N(Cc1cc(C2CC2)cc(C2CC2)c1)C(=O)CN(Cc1c(F)cc(F)cc1F)S(=O)(=O)c1c(F)c(F)c(F)c(F)c1F [Compound 1203, 4-(N-(3,5-dicyclopropylbenzyl)-2-(N-(2,4,6-trifluorobenzyl)-(2,3,4,5,6-pentafluoro-phenyl)sulfonamido)acetamido)-3,5-dimethylbenzoic acid]	4.12 to 9.23 h	6.50 to 11.00	5.00 to 9.00
O=C(O)c1ccc(N(Cc2cc(C3CC3)cc(C3CC3)c2)C(=O)CN(Cc2cnccc2C(F)(F)F)S(=O)(=O)c2c(F)c(F)c(F)c(F)c2F)c(OC2CCCC2)c1 [Compound 1207, 3-(cyclopentyloxy)-4-(N-(3,5-dicyclopropylbenzyl)-2-(N-((4-(trifluoromethyl)pyridin-3-yl)methyl)-(2,3,4,5,6-pentafluoro-phenyl)sulfonamido)acetamido)benzoic acid]	4.12 to 9.23 h	6.50 to 11.00	4.70 to 5.00
O=C(O)c1ccc(N(Cc2cc(C3CC3)cc(C3CC3)c2)C(=O)CN(Cc2ccc(F)cc2Cl)S(=O)(=O)c2c(F)c(F)c(F)c(F)c2F)c(OC2CCCC2)c1 [Compound 1208, 4-(2-(N-(2-chloro-4-fluorobenzyl)-(2,3,4,5,6-pentafluorophenyl)sulfon-amido)-N-(3,5-dicyclopropylbenzyl)acetamido)-3-(cyclopentyloxy) benzoic acid]	9.23 to 1670 h	6.50 to 11.00	4.70 to 5.00
O=C(O)c1ccc(N(Cc2cc(C3CC3)cc(N3CCCC3)c2)C(=O)CN(Cc2cnccc2C(F)(F)F)S(=O)(=O)c2c(F)c(F)c(F)c(F)c2F)c(OC2CCCC2)c1 [Compound 1209, 3-(cyclopentyloxy)-4-(N-(3-cyclopropyl-5-(pyrrolidin-1-yl)benzyl)-2-(N-((4-(trifluoromethyl)pyridin-3-yl)methyl)-(2,3,4,5,6-pentafluoro-phenyl)sulfonamido)acetamido)benzoic acid]	9.23 to 1670 h	6.50 to 11.00	4.70 to 5.00

More lines, main results first:

half-life at 25 μM (glutathione (GSH))	SMILES	pIC50 (MV4-11 cells)	pIC50 [1]
0.00167 to 2.37 h	CN(C)c1cc(C(=O)O)ccc1N(Cc1cc(C2CC2)cc(C2CC2)c1)C(=O)CN(Cc1cnccc1C(F)(F)F)S(=O)(=O)c1c(F)c(F)c(F)c(F)c1F [Compound 1210, 4-(N-(3,5-dicyclopropylbenzyl)-2-(N-((4-(trifluoromethyl)pyridin-3-yl)methyl)-(2,3,4,5,6-pentafluoro-phenyl)sulfonamido)acetamido)-3-(dimethylamino) benzoic acid]	6.50 to 11.00	5.00 to 9.00
4.12 to 9.23 h	CN(C)c1cc(C(=O)O)ccc1N(Cc1cc(C2CC2)cc(C2CC2)c1)C(=O)CN(Cc1ccc(F)cc1Cl)S(=O)(=O)c1c(F)c(F)c(F)c(F)c1F [Compound 1211, 4-(2-(N-(2-chloro-4-fluorobenzyl)-(2,3,4,5,6-pentafluorophenyl)sulfon-amido)-N-(3,5-dicyclopropylbenzyl)acetamido)-3-(dimethylamino) benzoic acid]	6.00 to 6.50	4.70 to 5.00
2.37 to 4.12 h	CC(C)Oc1cc(CN(C(=O)CN(Cc2ccccc2C(F)(F)F)S(=O)(=O)c2c(F)c(F)c(F)c(F)c2F)c2ccc(C(=O)O)cc2OC2CC2)cc(C2CC2)c1 [Compound 1213, 3-cyclopropoxy-4-(N-(3-cyclopropyl-5-isopropoxybenzyl)-2-(N-(2-(trifluoromethyl)benzyl)-(2,3,4,5,6-pentafluoro-phenyl)sulfonamido)acetamido)benzoic acid]	6.50 to 11.00	4.70 to 5.00
4.12 to 9.23 h	O=C(O)c1ccc(N(Cc2cc(C3CC3)cc(C3CC3)c2)C(=O)CN(Cc2ncc(F)cc2Cl)S(=O)(=O)c2c(F)c(F)c(F)c(F)c2F)c(OC2CC2)c1 [Compound 1214, 4-(2-(N-((3-chloro-5-fluoropyridin-2-yl)methyl)-(2,3,4,5,6-pentafluorophenyl)sulfon-amido)-N-(3,5-dicyclopropylbenzyl)acetamido)-3-cyclopropoxybenzoic acid]	6.50 to 11.00	5.00 to 9.00
4.12 to 9.23 h	CN(C)c1cc(C(=O)O)ccc1N(Cc1cc(C2CC2)cc(C2CC2)c1)C(=O)CN(Cc1ccccc1C(F)(F)F)S(=O)(=O)c1c(F)c(F)c(F)c(F)c1F [Compound 1215, 4-(N-(3,5-dicyclopropylbenzyl)-2-(N-(2-(trifluoromethyl)benzyl)-(2,3,4,5,6-pentafluoro-phenyl)sulfonamido)acetamido)-3-(dimethylamino) benzoic acid]	6.50 to 11.00	4.52 to 4.70
